Test: Chemical stability of PsA in mice plasma (HPLC)
Format: in vitro ADME
Conditions: for Stability 24 h Room Temperature, Accuracy (%) / Stability −20 °C for 2 Weeks, Accuracy (%) / Stability Freeze-Thaw Cycles, Accuracy (%): mice plasma, n = 3; for Stability Freeze-Thaw Cycles, Accuracy (%): three cycles
Protocol: Chromatographic analysis was conducted on a Shimadzu HPLC system (Shimadzu USA Manufacturing Inc., Canby, OR, USA) equipped with an SPD-20A UV detector, 20 µL manual sampler, LC-20AD pump, a degasser, and an automated temperature-controlled column compartment. The UV detector, column oven, and LC-20AD pump were coupled to the Shimadzu system and controlled through Lab Solutions software, v5.111. Stationary phase separation was carried out using a Shimadzu Shim-Pack GWS C18 column (4.6 × 250 mm, 5 µm) equipped with a Zorbax ODS guard column (4.6 × 12.5 mm, 5 µm) by gradient elution with the column temperature maintained at 35 °C. The UV detector wavelength was set and measured at 254 nm. A constant flow rate of 1.0 mL/min and manual injection of 20 µL were employed throughout the HPLC analysis. A mobile phase consisting of aqueous HCOOH (0.1%, v/v, mobile system A) and HPLC grade CH3CN (mobile system B) utilized with a gradient elution of 30–60% B at 0–5 min, 60–85% B at 5–8 min, 85–95% B at 8–11.5 min, and 95% B at 11.5–18 min. The post-run re-equilibration time was 5 min.
Five µL of the IS ([…]) and 20 µL of 50, 40, 30, 20, 10, 8, and 4 µg/mL PsA standard solutions were combined with 15 µL freshly extracted blank mouse plasma. 300 µL of a 70% EtOAc/30% isopropanol mixture was added and vortexed for 30 s. Following centrifugation at 15,000× g for 10 min, the supernatant was transferred to a 2 mL Eppendorf tube for nitrogen evaporation. The residues were reconstituted in 25 µL HPLC-grade MeOH before being subjected to 30 s sonication followed by centrifugation at 15,000× g for 10 min. Afterwards, the entire sample was immediately injected for RP-HPLC analysis. The mouse plasma samples used in the PK study were subjected to the same extraction method, minus the addition of the PsA standard solutions. After weighing, each mouse organ was reconstituted in 500 µL PBS, then homogenized using the MISONIX Sonicator (Division of QSonica LLC, Newtown, CT, USA). Samples were centrifuged at 15,000× g for 10 min, and the supernatant was collected and transferred to a 2 mL Eppendorf. About 5 µL of IS (25 µL/mL) and 300 µL of a 70% EtOAc/30% isopropanol mixture were added to 100 µL of supernatant and vortexed for 30 s. Following centrifugation at 15,000× g for 10 min, the supernatant was transferred to a 2 mL Eppendorf tube and evaporated under N2. The remains were reconstituted in 40 µL HPLC-grade methanol before being subjected to 30 s sonication followed by centrifugation at 15,000× g for 10 min.
The stability of PsA at room temperature was determined by preparing six separate mouse plasma samples for each concentration. Three samples for each concentration were immediately extracted and injected into the HPLC. The three remaining samples were left on a lab bench protected from light for 24 h before being extracted and injected into the HPLC. The concentrations measured at the 0 and 24 h time points were compared. The stability of PsA after three freeze-thaw cycles was assessed by preparing six separate mouse plasma samples for each concentration. Three samples for each concentration were immediately extracted and injected into the HPLC. The three remaining samples for each concentration were frozen and thawed in a −80 °C freezer three separate times before being extracted and injected into the HPLC. The stability of PsA at −20 °C for 2 weeks was determined by preparing six separate mouse plasma samples for each concentration. Three samples for each concentration were immediately extracted and injected into the HPLC. The three remaining samples were left in a −20 °C freezer for two weeks before being thawed, extracted, and analyzed on the HPLC.

CC/C=C\[C@H](O)[C@H](O)C1=C(C)C(=O)[C@]2(O1)C(=O)N[C@@](OC)(C(=O)c1ccccc1)[C@@H]2O [PsA, pseurotin A]
Stability 24 h Room Temperature, Accuracy (%) (4 µg/mL): 35.2% | Stability −20 °C for 2 Weeks, Accuracy (%) (4 µg/mL): 83.6% | Stability Freeze-Thaw Cycles, Accuracy (%) (4 µg/mL): 94.0% | Stability 24 h Room Temperature, Accuracy (%) (50 µg/mL): 35.5% | Stability −20 °C for 2 Weeks, Accuracy (%) (50 µg/mL): 93.5% | Stability Freeze-Thaw Cycles, Accuracy (%) (50 µg/mL): 108.1% | Stability 24 h Room Temperature, Accuracy (%) (250 µg/mL): 48.8% | Stability −20 °C for 2 Weeks, Accuracy (%) (250 µg/mL): 90.6% | Stability Freeze-Thaw Cycles, Accuracy (%) (250 µg/mL): 100.6% | concentration loss (mouse plasma, room temperature, 24 h): over 50%
